The record followed here is ChEMBL document CHEMBL3763078, “Cytotoxicity and apoptotic activity of novel organobismuth(V) and organoantimony(V) complexes in different cancer cell lines” (Eur J Med Chem, 2016).

Data set [1] deals with K562. In words: Selectivity index, ratio of IC50 for mouse Melan-a cells to IC50 for human K562 cells. The class given is functional.
Data set [2] relates to B16-F10. Nature of the data set: Selectivity index, ratio of IC50 for mouse L929 cells to IC50 for mouse B16F10 cells. Type of data set: functional.
Data set [3] deals with K562. In words: Cytotoxicity against human K562 cells assessed as cell viability after 72 hrs by tryphan blue assay. The class given is functional, cell-based.
The nature of data set [4]: Cytotoxicity against mouse B16F10 cells assessed as cell viability after 72 hrs by MTT assay. The class given is functional, cell-based, B16-F10.
Data set [5] has as its system K562. Nature of the data set: Selectivity index, ratio of IC50 for mouse L929 cells to IC50 for human K562 cells. The class given is functional.
The subject of data set [6] is L929. Nature of the data set: Cytotoxicity against mouse L929 cells assessed as cell viability after 72 hrs by MTT assay. The class given is cell-based.
The subject of data set [7] is B16-F10. Nature of the data set: Selectivity index, ratio of IC50 for mouse Melan-a cells to IC50 for mouse B16F10 cells. The class given is functional.
Data set [8] can be described thus: Cytotoxicity against mouse Melan-a cells assessed as cell viability after 72 hrs by MTT assay. The class given is cell-based.
Data set [9] has as its system B16-F10. In words: Induction of apoptosis in mouse B16F10 cells at 0.1 uM after 48 hrs by annexin V-FITC/propidium iodide staining-based flow cytometric analysis relative to control. Type of data set: functional.
Data set [10] concerns B16-F10. In words: Induction of apoptosis in mouse B16F10 cells assessed as late apoptotic cells at 0.1 uM after 48 hrs by annexin V-FITC/propidium iodide staining-based flow cytometric analysis (reference value: 0.450%). The class given is functional.
For data set [11], the system named is B16-F10. Nature of the data set: Induction of apoptosis in mouse B16F10 cells assessed as dead cells at 0.1 uM after 48 hrs by annexin V-FITC/propidium iodide staining-based flow cytometric analysis (reference value: 1.11%). The class given is functional.
Data set [12] deals with B16-F10. In words: Induction of apoptosis in mouse B16F10 cells assessed as early apoptotic cells at 0.1 uM after 48 hrs by annexin V-FITC/propidium iodide staining-based flow cytometric analysis (reference value: 0.087%). Type of data set: functional.
In data set [13] the test system is B16-F10. In words: Induction of apoptosis in mouse B16F10 cells assessed as viable cells at 0.1 uM after 48 hrs by annexin V-FITC/propidium iodide staining-based flow cytometric analysis (reference value: 98.4%). The conditions noted are these: B16-F10, 48 h, read-out: Activity. The class given is functional.
Data set [14] deals with HL-60. Nature of the data set: Induction of apoptosis in human HL60 cells assessed as increase in sub-diploid DNA content at 0.44 uM after 12 hrs by propidium iodide staining-based flow cytometric analysis relative to control. Type of data set: functional, cell-based.
For data set [15], the system named is HL-60. In words: Induction of apoptosis in human HL60 cells assessed as increase in sub-diploid DNA content at 0.44 uM after 6 hrs by propidium iodide staining-based flow cytometric analysis relative to control. Type of data set: functional, cell-based.
Data set [16] relates to B16-F10. In words: Induction of apoptosis in mouse B16F10 cells assessed as early apoptotic cells at 10 uM after 48 hrs by annexin V-FITC/propidium iodide staining-based flow cytometric analysis (reference value: 0.087%). The class given is functional, cell-based.
The subject of data set [17] is B16-F10. Nature of the data set: Induction of apoptosis in mouse B16F10 cells assessed as late apoptotic cells at 1 uM after 48 hrs by annexin V-FITC/propidium iodide staining-based flow cytometric analysis (reference value: 0.450%). Type of data set: functional, cell-based.
The test system of data set [18] is B16-F10. In words: Induction of apoptosis in mouse B16F10 cells assessed as viable cells at 1 uM after 48 hrs by annexin V-FITC/propidium iodide staining-based flow cytometric analysis (reference value: 98.4%). The class given is functional, cell-based.
For data set [19], the system named is B16-F10. In words: Induction of apoptosis in mouse B16F10 cells assessed as increase in sub-diploid DNA content at 10 uM after 24 hrs by propidium iodide staining-based flow cytometric analysis relative to control. The class given is functional, cell-based.
Data set [20] has as its system B16-F10. In words: Induction of apoptosis in mouse B16F10 cells assessed as viable cells at 100 uM after 48 hrs by annexin V-FITC/propidium iodide staining-based flow cytometric analysis (reference value: 98.4%). Type of data set: functional, cell-based.
Data set [21] has as its system B16-F10. In words: Induction of apoptosis in mouse B16F10 cells assessed as dead cells at 10 uM after 48 hrs by annexin V-FITC/propidium iodide staining-based flow cytometric analysis (reference value: 1.11%). The class given is functional, cell-based.
In data set [22] the test system is B16-F10. Nature of the data set: Induction of apoptosis in mouse B16F10 cells at 1 to 100 uM after 48 hrs by annexin V-FITC/propidium iodide staining-based flow cytometric analysis relative to staurosporine. The class given is functional, cell-based.
The test system of data set [23] is B16-F10. In words: Induction of apoptosis in mouse B16F10 cells assessed as increase in sub-diploid DNA content at 100 uM after 24 hrs by propidium iodide staining-based flow cytometric analysis relative to staurosporin. Type of data set: functional, cell-based.
For data set [24], the system named is B16-F10. In words: Induction of apoptosis in mouse B16F10 cells assessed as dead cells at 100 uM after 48 hrs by annexin V-FITC/propidium iodide staining-based flow cytometric analysis (reference value: 1.11%). Type of data set: functional, cell-based.
Data set [25] deals with B16-F10. Nature of the data set: Induction of apoptosis in mouse B16F10 cells assessed as increase in sub-diploid DNA content at 10 uM after 24 hrs by propidium iodide staining-based flow cytometric analysis relative to staurosporin. The class given is functional, cell-based.
Data set [26] deals with B16-F10. In words: Induction of apoptosis in mouse B16F10 cells assessed as late apoptotic cells at 10 uM after 48 hrs by annexin V-FITC/propidium iodide staining-based flow cytometric analysis (reference value: 0.450%). The class given is functional, cell-based.
In data set [27] the test system is B16-F10. In words: Induction of apoptosis in mouse B16F10 cells assessed as increase in sub-diploid DNA content at 100 uM after 48 hrs by propidium iodide staining-based flow cytometric analysis relative to control. Type of data set: functional, cell-based.
Data set [28] has as its system B16-F10. Nature of the data set: Induction of apoptosis in mouse B16F10 cells assessed as early apoptotic cells at 100 uM after 48 hrs by annexin V-FITC/propidium iodide staining-based flow cytometric analysis (reference value: 0.087%). The class given is functional, cell-based.
Data set [29] has as its system B16-F10. In words: Induction of apoptosis in mouse B16F10 cells assessed as viable cells at 10 uM after 48 hrs by annexin V-FITC/propidium iodide staining-based flow cytometric analysis (reference value: 98.4%). Type of data set: functional, cell-based.
The subject of data set [30] is B16-F10. Nature of the data set: Induction of apoptosis in mouse B16F10 cells at 100 uM after 48 hrs by annexin V-FITC/propidium iodide staining-based flow cytometric analysis relative to control. Type of data set: functional, cell-based.
The test system of data set [31] is B16-F10. In words: Induction of apoptosis in mouse B16F10 cells at 10 uM after 48 hrs by annexin V-FITC/propidium iodide staining-based flow cytometric analysis relative to control. Type of data set: functional, cell-based.
The subject of data set [32] is B16-F10. Nature of the data set: Induction of apoptosis in mouse B16F10 cells at 1 uM after 48 hrs by annexin V-FITC/propidium iodide staining-based flow cytometric analysis relative to control. The class given is functional, cell-based.
The subject of data set [33] is B16-F10. In words: Induction of apoptosis in mouse B16F10 cells assessed as late apoptotic cells at 100 uM after 48 hrs by annexin V-FITC/propidium iodide staining-based flow cytometric analysis (reference value: 0.450%). Type of data set: functional, cell-based.
Data set [34] relates to B16-F10. In words: Induction of apoptosis in mouse B16F10 cells assessed as increase in sub-diploid DNA content at 100 uM after 24 hrs by propidium iodide staining-based flow cytometric analysis relative to control. The class given is functional, cell-based.
Data set [35] has as its system B16-F10. Nature of the data set: Induction of apoptosis in mouse B16F10 cells assessed as dead cells at 1 uM after 48 hrs by annexin V-FITC/propidium iodide staining-based flow cytometric analysis (reference value: 1.11%). Type of data set: functional, cell-based.
In data set [36] the test system is B16-F10. Nature of the data set: Induction of apoptosis in mouse B16F10 cells assessed as early apoptotic cells at 1 uM after 48 hrs by annexin V-FITC/propidium iodide staining-based flow cytometric analysis (reference value: 0.087%). Type of data set: functional, cell-based.
Data set [37] concerns B16-F10. Nature of the data set: Induction of apoptosis in mouse B16F10 cells assessed as increase in sub-diploid DNA content at 10 uM after 48 hrs by propidium iodide staining-based flow cytometric analysis relative to control. The class given is functional, cell-based.
Data set [38] in a line: Induction of apoptosis in mouse thymocytes at 30 uM after 3 hrs by annexin V-FITC/ethidium bromide staining-based flow cytometric analysis relative to control. The class given is cell-based. Conditions: thymocyte.

Consider `CC(=O)c1ccc(C(=O)O)cc1`, for which the “Ratio IC50” value in [1] was under 1; in data set [2], 1.8; in [5] it was under 1; in data set [7], under 1. In addition, the IC50 is under 1000 µM in data set [3] (Homo sapiens, K562, 72 h); 176 µM in [4] (Mus musculus, B16-F10, 72 h); 331 µM in data set [6] (Mus musculus, L929, 72 h).
`CC(=O)c1ccccc1C(=O)O`: the IC50 in data set [8] (Mus musculus, Melan-a, 72 h) came to 775 µM; in [3] (Homo sapiens, K562, 72 h) it was 502 µM; in [4] (Mus musculus, B16-F10, 72 h), 852 µM; in data set [6] (Mus musculus, L929, 72 h), 474 µM. The “Ratio IC50” value is given as 1.5 in data set [1], under 1 in data set [2], under 1 in data set [5] and under 1 in data set [7].
Regarding `CC(=O)c1ccc(O)c(C(=O)O)c1`, the “Ratio IC50” value in [1], in [2], in [5] and in data set [7] was under 1 throughout. In addition, the IC50 in [4] (Mus musculus, B16-F10, 72 h) is 4880 µM; in data set [6] (Mus musculus, L929, 72 h) it was 306 µM.
Turning to `CN[C@@H]1C[C@H]2O[C@@](C)([C@@H]1OC)n1c3ccccc3c3c4c(c5c6ccccc6n2c5c31)C(=O)NC4` [STAUROSPORINE], in [9], the “fold change (FC)” value was found to be 21. Moreover, the Activity was 43.5% in data set [10], 22.2% in data set [11] and 0.461% in data set [12]. Moreover, in data set [13], the viability at 0.1 µM was 33.9%.
Take Bi-chlorodibenzo[c,f][1,5]thiabismocine: the Activity in data set [14] is 80%. The fold change (FC) in data set [15] is 13.
For the compound “Bis-(2-acetylbenzoato)triphenylbismuth(V)”, the Ratio IC50 is 52.4 in data set [1], 6.1 in [2], 24.6 in [5] and 13 in data set [7]. Also, the Activity turned out to be 6.81% in data set [16]; 14.6% in data set [17]; 66.1% in data set [18]; 1.57% in data set [20]; 10.7% in data set [21]; 7.1% in [24]. Also, the Activity in data set [26] was 77.3%; in [28] it was 1.25%; in data set [29], 5.22%; in data set [33], 90.1%; in [35] it was 3.89%; in [36], 15.4%. The fold change (FC) in [19] is 18; in [22], 1.5; in data set [23], 70; in data set [25] it was 18; in data set [27], 256; in data set [30], 34. For the same compound, the fold change (FC) in [31] stood at 33; in data set [32], 8; in [34], 70; in data set [37], 129.
For “Bis-(4-acetylbenzoato)triphenylbismuth(V)”, the Ratio IC50 in [1] came to 7.4; in data set [2] it was 1.8; in data set [5], 1; in [7], 12.7.
For “Bis-(5-acetylsalicylato)triphenylantimony(V) chloroform solvate” the same measures were 5.6, 2.2, 7.9 and 1.6.
With DICHLOROTRIPHENYLBISMUTHANE, the IC50 in data set [8] (melan-a) stood at 130 µM; in [3] (k562) it was 31.1 µM; in data set [4] (b16-f10), 19.2 µM; in data set [6] (l929), 154 µM.
As for TRIPHENYLBISMUTHINE, the “fold change (FC)” value in data set [38] is listed as 5.
For the compound [sequence], the Ratio IC50 in [1] came to 4.1; in data set [2] it was 8; in [5], 5; in data set [7] it was 6.7.
“bis-(4-acetylbenzoato)triphenylantimony(V)”: the Ratio IC50 in data set [1] came to 7.2; in [2], 3.1; in data set [5] it was 3.4; in data set [7] it was 6.6.
The corresponding values for triphenylantimony(V) dichloride are 2.6, 1.9, 2.6 and 6.7.
